The values below come from patent US20210290680A1, “METHODS AND COMPOSITIONS FOR MODULATING CELLULAR AGING” (Dorian Therapeutics, Inc., priority 2019, published 2021).

In series [1] the test system is CD19.CAR and GD2.CAR T cells. As to the kind of experiment: CAR-T cell proliferation (fold increase compared to control cells). It is filed as cell-based, human. An excerpt:
Plasmids encoding for 2nd generation CAR specific for CD19 (Lenti-EF1a-CD19(FMC63)-2nd-CAR(CD28)-EGFRt) or GD2 (Lenti-EF1a-GD2(14G2a)-2nd-CAR(CD28)-EGFRt) were purchased from Creative Biolabs. The CAR containing plasmids were engineered to co-express a shRNA targeting USP16. The shRNA sequences are: shUSP16 #1 5′-[…]-3′ (SEQ ID NO: 8) and shUSP16 #2 5′-[…]-3′ (SEQ ID NO: 9). Primary T cells were activated as described (Example 3), transduced with a lentivirus encoding for either a CD19.CAR or a GD2.CAR co-expressing shUSP16 #1, shUSP16 #2 or a scrambled shRNA (Control). Cells were cultured in IL-2 and sorted between days 6-13 for EGFRt. Briefly, cells were stained with biotin EGFR antibody (R&D) and magnetically sorted with anti-biotin or streptavidin conjugated beads (Miltenyi Biotec) using the LS columns (Miltenyi Biotec). The positive population was isolated and expanded in regular TC-treated plates or in G-Rex 6 well culture plate (Wilson Wolf). The G-Rex platform was used to achieve a rapid expansion of T cells for in vitro and in vivo applications.
Primary T cells were activated as described (Example 3), transduced with a lentivirus encoding for either a CD19.CAR or a GD2.CAR co-expressing shUSP16 #1, shUSP16 #2 or a scrambled shRNA (Control). Cells were cultured in IL-2 and sorted between days 6-13 for EGFRt. Cells were plated post-sorting with a purity higher than 85% and counted every 2-4 days by Trypan Blue exclusion using Vi-CELL XR cell counter. Fifteen days post-activation both CD19.CAR and GD2.CAR T cells were collected, and qPCR was performed to verify downregulation of USP16 expression (FIG. 24) (fold change GD2.CAR (n=3): Control vs shUSP #1: 0.35, p<0.0001, and Control vs shUSP16 #2: 0.2452, p<0.0001, fold change CD19.CAR (n=4): Control vs shUSP #1: 0.2891, p<0.0001, and Control vs shUSP16 #2: 0.2566, p<0.0001). Proliferation was measured as fold increase compared to control cells at day 15 (FIG. 25).

Series [2] concerns CHLA-55 neuroblastoma cell lines. As to the kind of experiment: In vivo anti-tumor activity of GD2.CAR T cells (circulating Gaussia luciferase). As to conditions: immunocompromised mice, one million GD2.CAR T cells via tail vein, n=4-6. The protocol: Primary T cells were activated as described (Example 3), transduced with a lentivirus encoding for either a CD19.CAR or a GD2.CAR co-expressing shUSP16 #1, shUSP16 #2, or a scrambled shRNA (Control). Cells were cultured in IL-2 and sorted between days 6-13 for EGFRt. At day 15 cells were frozen down (to mimic the clinic setting) and thawed d−1 before injection in immunocompromised mice. Immunocompromised mice (NCG (NOD CRISPR Prkdc II2r Gamma) were provided by Charles River and NSG (NOD.Cg-PrkdcIL2rg<tm1Wj1>/SzJ) were purchased from Jackson Laboratory). CHLA-55 neuroblastoma cell lines were transduced with Gaussia Luciferase and one million cells were injected via tail vein at d−7 (day minus 7).
One million of GD2.CAR T cells were infused via tail vain at day 0 and mice were weighted, and blood was collected every week (FIG. 36). Tumor growth was monitor by weekly assessment of circulating luciferase. Briefly, blood was collected and subsequently analyzed for luciferase expression using Nanolight Technologies Luciferase detection Kit. Luciferase expression (calculated as GLuc, RLU (Relative Luminescence Unit)) in the blood correlates with tumor engraftment.

Series [3] concerns CD19.CAR T cells. As to the kind of experiment: Apoptosis, necrosis, mitochondrial membrane potential and glutathione content (Amberglass panel). It is filed as cell-based, human. The settings on record: for cells with low mitochondrial membrane potential (Q1) / cellular health: high mitochondrial membrane potential and high GSH content (Q2): day 15; for apoptosis: day 15, FIG. 31A top left; for necrosis: day 15, FIG. 31A top right. The protocol:
Primary T cells were activated as described (Example 3), and transduced with a lentivirus encoding for CD19.CAR co-expressing shUSP16 #1, shUSP16 #2 or a scrambled shRNA (Control). Cells were cultured in IL-2 and sorted between days 6-13 for EGFRt. At day 15 cells were stained and analyzed by MACSQuant for apoptosis, necrosis, mitochondrial membrane potential and glutathione content (GSH). The data generation was powered by Amberglass technology made available by Mojave Bio in the form of a dehydrated panel of reagents on a 96 well plate.

Series [4] deals with Axin-2. As to the kind of experiment: qPCR of WNT pathway gene Axin-2. As to conditions: day 15, n=4; for Axin-2 expression, fold change vs Control: CD19.CAR. It is filed as cell-based, human. From the text: Primary T cells were activated as described (Example 3), transduced with a lentivirus encoding for either a CD19.CAR or a GD2.CAR co-expressing shUSP16 #1, shUSP16 #2 or a scrambled shRNA (Control). Fifteen days post-activation, T cells were collected and qPCR performed. TaqMan probes detecting CDKN1A, CDKN2A (FIGS. 26A and 26B) (fold change GD2.CAR (n=4): CDKN1A Control vs shUSP #1: 0.4360, p<0.0001, and Control vs shUSP16 #2: 3.036, p=0.004 respectively. Fold change CD19.CAR (n=4): CDKN2a, CDKN1A Control vs shUSP #1: 0.6906, p=0.0026; 0.7228, p=0.0297 and Control vs shUSP16 #2: 0.8385, p=0.2325; 0.7017, p=0.0021), TCF7, LEF1, and Axin-2 (FIGS. 27A and B) were analyzed in GD2.CAR and CD19.CAR-expressing cells, respectively. ACTB was used as internal control. (GD2.CAR (n=4) TCF7, LEF1 and Axin-2: Control vs shUSP #1: 1.914 p=0.0512; 1.795 p=0.0323; 3.269 p=0.15 and Control vs shUSP16 #2: 1.284 p=0.0494; 1.718 p=0.0586; 2.035p=0.235, respectively. Fold change CD19.CAR (n=4): TCF7, LEF1 and Axin-2: Control vs shUSP #1: 1.528, p=0.0277; 1.82, p=0.0449; 1.998, p=0.031 and Control vs shUSP16 #2: 1.18, p=0.2002; 1.579, p=0.0632; 1.261, p=0.2382). USP16 downregulation in CAR-T cells results in a decreased expression of senescence markers and an increase in the expression of genes associated with the activation/increased signaling of the WNT pathway, indicating its importance in delaying cellular senescence and increasing self-renewal.

For “shUSP16 #1: shRNA targeting USP16, 5′-GACTGTAAGACTGACAATAAA-3′ (SEQ ID NO: 8), pSIH backbone or co-expressed in CAR plasmid”, the “T cell expansion, fold change vs Control” value in series [1] (CD19.CAR, day 15, n=4) is listed as 2.259. For the same substance, the “T cell expansion, fold change vs Control” value in series [1] (GD2.CAR, day 15, n=3) worked out at 2.147. Further, the “CHLA-55 engraftment, luciferase expression in blood (GLuc)” value in series [2] was 53279 RLU. Besides, in series [3], the “cells with low mitochondrial membrane potential (Q1)” value is 7.62 percentage of cells; the “cellular health: high mitochondrial membrane potential and high GSH content (Q2)” value is reported as 89.9; the apoptosis amounted to 9.40; the necrosis is listed as 4.75. In addition, the “Axin-2 expression, fold change vs Control” value in series [4] stood at 1.998. Also, the “Axin-2 expression vs Control” value in series [4] (GD2.CAR) was 3.269.
On to “shUSP16 #2: shRNA targeting USP16, 5′-TATATCAGTTCACCCGTAAT-3′ (SEQ ID NO: 9), pSIH backbone or co-expressed in CAR plasmid”, for which the “T cell expansion, fold change vs Control” value in series [1] (CD19.CAR, day 15, n=4) is given as 3.036. In series [1] (GD2.CAR, day 15, n=3), the “T cell expansion, fold change vs Control” value was 3.036. Further, the “CHLA-55 engraftment, luciferase expression in blood (GLuc)” value in series [2] came to 38968 RLU. In series [3], the “cells with low mitochondrial membrane potential (Q1)” value was 9.87 percentage of cells; the “cellular health: high mitochondrial membrane potential and high GSH content (Q2)” value is reported as 85.7; the apoptosis turned out to be 8.25; the necrosis came to 3.96. Moreover, the “Axin-2 expression, fold change vs Control” value in series [4] turned out to be 1.261.
